# According to PubChem BioAssay AID686916 (Sanford-Burnham Center for Chemical Genomics, 2013):
# “And” between values parts separate entries of the source, which are not always exact repeats. Identical values can stand only once. The source made the active and inactive calls.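 The calls were made as follows: active = concentration halving Nedd8 removal by the CSN enzyme IC50 of 60 µM or lower; inactive = the rest.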
# Target: COP9 signalosome complex subunit 5 (Homo sapiens) (UniProt Q92905)
# Test: inhibition of CSN cullin-RING ligase deneddylation – biochemical, fluorescence polarization, SCF-Nedd8-OG substrate, set 2, selectivity assay for RPN11 inhibitor project, SAR follow-up (AID 686916)
# Details: Csn5 deneddylation of SCF-Nedd8-OG
# COP9 signalosome complex subunit 5 (Homo sapiens), sequence (Q92905 whole entry, looked up, one chain of several): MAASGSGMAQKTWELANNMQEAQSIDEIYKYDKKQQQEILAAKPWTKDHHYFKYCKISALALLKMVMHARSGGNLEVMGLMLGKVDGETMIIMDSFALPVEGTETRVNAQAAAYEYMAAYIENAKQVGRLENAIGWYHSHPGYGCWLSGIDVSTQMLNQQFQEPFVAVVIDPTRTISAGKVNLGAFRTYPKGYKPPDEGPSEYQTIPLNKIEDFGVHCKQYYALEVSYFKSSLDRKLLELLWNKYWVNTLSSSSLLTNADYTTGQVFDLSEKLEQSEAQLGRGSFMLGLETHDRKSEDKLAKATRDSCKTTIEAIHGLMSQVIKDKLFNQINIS
row,Compound,IC50
1,COC(=O)c1cnc2c(SSc3cccc4cc(C(=O)OC)cnc34)cccc2c1,20 µM
2,COc1ccc(C(=O)Sc2cccc3cccnc23)cc1,13.7 µM
3,O=C(Sc1cccc2cccnc12)c1c(Cl)cccc1Cl,17.4 µM
4,O=C(Sc1cccc2cccnc12)c1ccc(C(F)(F)F)cc1,5.25 µM
5,O=C(Sc1cccc2cccnc12)c1ccccc1[N+](=O)[O-],9.08 µM
6,Cc1ccccc1C(=O)Sc1cccc2cccnc12,18.2 µM
7,O=C(Sc1cccc2cccnc12)c1cccc(Cl)c1,2.63 µM
8,O=C(Sc1cccc2cccnc12)c1ccccc1OC(F)(F)F,17.8 µM
9,O=C(Sc1cccc2cccnc12)c1ccc(F)c(F)c1,4.92 µM
10,COC(=O)[C@@H](NC(=O)c1cnc2c(SSc3cccc4cc(C(=O)N[C@H](C(=O)OC)C(C)C)cnc34)cccc2c1)C(C)C,11.8 µM
11,O=C(Sc1cccc2cccnc12)c1cccc2ccccc12,14.3 µM
12,O=C(Sc1cccc2cccnc12)c1ccccc1Br,7.91 µM
13,CC(C)C[C@H](NC(=O)c1cnc2c(SSc3cccc4cc(C(=O)N[C@@H](CC(C)C)C(=O)O)cnc34)cccc2c1)C(=O)O,11.8 µM
14,COc1ccccc1C(=O)Sc1cccc2cccnc12,20.7 µM and 5.61 µM
15,COC(=O)[C@H](C)NC(=O)c1ccnc2c(SSc3cccc4c(C(=O)N[C@@H](C)C(=O)OC)ccnc34)cccc12,22.2 µM
16,O=C(Sc1cccc2cccnc12)C1CCCCC1,4.07 µM
17,CC[C@@H](C)[C@H](NC(=O)c1cnc2c(SSc3cccc4cc(C(=O)N[C@H](C(=O)OC)[C@@H](C)CC)cnc34)cccc2c1)C(=O)OC,4.73 µM
18,COC(=O)[C@H](CC(C)C)NC(=O)c1cnc2c(SSc3cccc4cc(C(=O)N[C@@H](CC(C)C)C(=O)OC)cnc34)cccc2c1,13.9 µM
19,O=C(Sc1cccc2cccnc12)c1ccccc1F,> 95 µM (inactive)
20,C[C@@H](C(=O)O)N(C)C(=O)c1cnc2c(SSc3cccc4cc(C(=O)N(C)[C@@H](C)C(=O)O)cnc34)cccc2c1,13 µM
21,O=C(Sc1cccc2cccnc12)c1ccccc1,11.2 µM
22,N#Cc1cccc(C(=O)Sc2cccc3cccnc23)c1,33.3 µM
23,COc1ccc(C(=O)Sc2cccc3cccnc23)cc1F,5 µM
24,Cc1cccc(C(=O)Sc2cccc3cccnc23)c1,12.3 µM

row,Compound,IC50
1,O=C(Sc1cccc2cccnc12)c1ccc2c(c1)OCO2,40.1 µM
2,COC(=O)C[C@H](NC(=O)c1cnc2c(SSc3cccc4cc(C(=O)N[C@@H](CC(=O)OC)C(=O)OC)cnc34)cccc2c1)C(=O)OC,13 µM
3,N#Cc1ccc(C(=O)Sc2cccc3cccnc23)cc1,> 95 µM (inactive)
4,COC(=O)[C@H](C)NC(=O)c1cnc2c(SSc3cccc4cc(C(=O)N[C@@H](C)C(=O)OC)cnc34)cccc2c1,20.3 µM
5,O=C(O)c1cnc2c(SSc3cccc4cc(C(=O)O)cnc34)cccc2c1,4.28 µM
6,O=C(O)[C@@H]1CCCN1C(=O)c1cnc2c(SSc3cccc4cc(C(=O)N5CCC[C@H]5C(=O)O)cnc34)cccc2c1,6.36 µM
7,COC(=O)[C@@H]1CCCN1C(=O)c1cnc2c(SSc3cccc4cc(C(=O)N5CCC[C@H]5C(=O)OC)cnc34)cccc2c1,17.6 µM
8,O=C(Sc1cccc2cccnc12)c1ccc(F)cc1F,24.6 µM
9,CCCc1ccc(C(=O)Sc2cccc3cccnc23)cc1,10.4 µM
10,COc1ccc(C(=O)Sc2cccc3cccnc23)cc1OC,14.3 µM
11,COC(=O)[C@H](C)N(C)C(=O)c1cnc2c(SSc3cccc4cc(C(=O)N(C)[C@@H](C)C(=O)OC)cnc34)cccc2c1,12.8 µM
12,CC(C)(C)OC(=O)CCNC(=O)c1cnc2c(SSc3cccc4cc(C(=O)NCCC(=O)OC(C)(C)C)cnc34)cccc2c1,26.4 µM
13,Cc1ccc(C(=O)Sc2cccc3cccnc23)cc1,> 95 µM (inactive)
14,COc1cccc(C(=O)Sc2cccc3cccnc23)c1,5.57 µM
15,CC(C)[C@H](NC(=O)c1cnc2c(SSc3cccc4cc(C(=O)N[C@H](C(=O)O)C(C)C)cnc34)cccc2c1)C(=O)O,8.35 µM
16,CC(C)Cc1ccc(C(=O)Sc2cccc3cccnc23)cc1,15.6 µM
17,CC[C@@H](C)[C@H](NC(=O)c1cnc2c(SSc3cccc4cc(C(=O)N[C@H](C(=O)O)[C@H](C)CC)cnc34)cccc2c1)C(=O)O,8.57 µM
18,O=C(Sc1cccc2cccnc12)c1ccccc1I,19.4 µM
19,CCOc1ccccc1C(=O)Sc1cccc2cccnc12,11.7 µM and 31.8 µM
20,O=C(Sc1cccc2cccnc12)c1ccc([N+](=O)[O-])cc1,13 µM
21,COC(=O)[C@H](CO)NC(=O)c1cnc2c(SSc3cccc4cc(C(=O)N[C@@H](CO)C(=O)OC)cnc34)cccc2c1,36.2 µM
22,O=C(Sc1cccc2cccnc12)c1ccc(F)cc1,3.12 µM
23,O=C(Sc1cccc2cccnc12)c1ccccc1Cl,19.9 µM
24,O=C(Sc1cccc2cccnc12)c1cccc(C(F)(F)F)c1,> 95 µM (inactive)
